From ChEMBL document CHEMBL5154653, “The discovery of 1, 3-diamino-7H-pyrrol[3, 2-f]quinazoline compounds as potent antimicrobial antifolates” (Eur J Med Chem, 2022)
Active and inactive are the calls of the source. The rule behind the calls is not given here.

Key:
Escherichia coli [1] = experiment: Inhibition of Escherichia coli C-terminal hexahistidine tagged DHFR at 5 uM incubated for 5 mins in presence of NADPH by measuring oxidation of NADPH to NADP+
Escherichia coli [2] = experiment: Antibacterial activity against Escherichia coli ATCC 25922 assessed as reduction in microbial growth after 16 to 18 hrs by microbroth dilution method; format: functional; conditions: time 16-18 hrs
Klebsiella pneumoniae [3] = experiment: Antibacterial activity against Klebsiella pneumoniae ATCC 700603 assessed as reduction in microbial growth after 16 to 18 hrs by microbroth dilution method; format: functional; conditions: time 16-18 hrs
Acinetobacter baumannii [4] = experiment: Antibacterial activity against Acinetobacter baumannii ATCC 19606 assessed as reduction in microbial growth after 16 to 18 hrs by microbroth dilution method; format: functional; conditions: time 16-18 hrs
[5] = Inhibition of Escherichia coli C-terminal hexahistidine tagged DHFR incubated for 5 mins in presence of NADPH by measuring oxidation of NADPH to NADP+
Escherichia coli [6] = experiment: Binding affinity to Escherichia coli C-terminal hexahistidine tagged DHFR assessed as change in enthalpy at 0.2 mM by isothermal titration calorimetry method
Escherichia coli [7] = experiment: Binding affinity to Escherichia coli C-terminal hexahistidine tagged DHFR assessed as change in entropy at 0.2 mM by isothermal titration calorimetry method
[8] = Binding affinity to Escherichia coli C-terminal hexahistidine tagged DHFR assessed as dissociation constant by isothermal titration calorimetry method
Escherichia coli [9] = experiment: Binding affinity to Escherichia coli C-terminal hexahistidine tagged DHFR assessed as change in gibbs free energy at 0.2 mM by isothermal titration calorimetry method
Acinetobacter baumannii [10] = experiment: Antibacterial activity against multi drug resistant Acinetobacter baumannii CCPM(A)-100902 assessed as reduction in microbial growth after 16 to 18 hrs by microbroth dilution method; format: functional; conditions: time 16-18 hrs
Acinetobacter baumannii [11] = experiment: Antibacterial activity against multi drug resistant Acinetobacter baumannii CCPM(A)-100903 assessed as reduction in microbial growth after 16 to 18 hrs by microbroth dilution method; format: functional; conditions: time 16-18 hrs
Acinetobacter baumannii [12] = experiment: Antibacterial activity against multi drug resistant Acinetobacter baumannii CCPM(A)-1100708 assessed as reduction in microbial growth after 16 to 18 hrs by microbroth dilution method; format: functional; conditions: time 16-18 hrs
Acinetobacter baumannii [13] = experiment: Antibacterial activity against Acinetobacter baumannii CCPM(A)-100946 assessed as reduction in microbial growth after 16 to 18 hrs by microbroth dilution method; format: functional; conditions: time 16-18 hrs
Acinetobacter baumannii [14] = experiment: Antibacterial activity against Acinetobacter baumannii CCPM(A)-100947 assessed as reduction in microbial growth after 16 to 18 hrs by microbroth dilution method; format: functional; conditions: time 16-18 hrs
Klebsiella pneumoniae [15] = experiment: Antibacterial activity against ESBL-producing Klebsiella pneumoniae CCPM(A)-081514 assessed as reduction in microbial growth after 16 to 18 hrs by microbroth dilution method; format: functional; conditions: time 16-18 hrs
Klebsiella pneumoniae [16] = experiment: Antibacterial activity against ESBL-producing Klebsiella pneumoniae CCPM(A)-081568 assessed as reduction in microbial growth after 16 to 18 hrs by microbroth dilution method; format: functional; conditions: time 16-18 hrs
Klebsiella pneumoniae [17] = experiment: Antibacterial activity against Klebsiella pneumoniae CCPM(A)-081018 assessed as reduction in microbial growth after 16 to 18 hrs by microbroth dilution method; format: functional; conditions: time 16-18 hrs
Escherichia coli [18] = experiment: Antibacterial activity against Escherichia coli CCPM(A)-0715118 assessed as reduction in microbial growth after 16 to 18 hrs by microbroth dilution method; format: functional; conditions: time 16-18 hrs
Escherichia coli [19] = experiment: Antibacterial activity against ESBL-producing Escherichia coli CCPM(A)-071030 assessed as reduction in microbial growth after 16 to 18 hrs by microbroth dilution method; format: functional; conditions: time 16-18 hrs
Escherichia coli [20] = experiment: Antibacterial activity against ESBL-producing Escherichia coli CCPM(A)-0715117 assessed as reduction in microbial growth after 16 to 18 hrs by microbroth dilution method; format: functional; conditions: time 16-18 hrs
Escherichia coli [21] = experiment: Antibacterial activity against ESBL-producing Escherichia coli CCPM(A)-0715142 assessed as reduction in microbial growth after 16 to 18 hrs by microbroth dilution method; format: functional; conditions: time 16-18 hrs
Staphylococcus aureus [22] = experiment: Antibacterial activity against Staphylococcus aureus ATCC 29213 assessed as reduction in microbial growth after 16 to 18 hrs by microbroth dilution method; format: functional; conditions: time 16-18 hrs
Staphylococcus aureus [23] = experiment: Antibacterial activity against methicillin-resistant Staphylococcus aureus ATCC 43300 assessed as reduction in microbial growth after 16 to 18 hrs by microbroth dilution method; format: functional; conditions: time 16-18 hrs
Enterococcus faecium = experiment: Antibacterial activity against vancomycin-resistant Enterococcus faecium ATCC 51559 assessed as reduction in microbial growth after 16 to 18 hrs by microbroth dilution method; format: functional; conditions: time 16-18 hrs
Escherichia coli [24] = experiment: Antibacterial activity against Escherichia coli ATCC 25922 overexpressing DHFR assessed as reduction in microbial growth after 16 to 18 hrs by microbroth dilution method; format: functional; conditions: time 16-18 hrs
Thymidylate synthase = Thymidylate synthase (Escherichia coli K-12, UniProt P0A884); experiment: Inhibition of Escherichia coli N-terminal hexahstidine-tagged TS by steady-state kinetic analysis
Thymidylate synthase, sequence (P0A884 whole entry): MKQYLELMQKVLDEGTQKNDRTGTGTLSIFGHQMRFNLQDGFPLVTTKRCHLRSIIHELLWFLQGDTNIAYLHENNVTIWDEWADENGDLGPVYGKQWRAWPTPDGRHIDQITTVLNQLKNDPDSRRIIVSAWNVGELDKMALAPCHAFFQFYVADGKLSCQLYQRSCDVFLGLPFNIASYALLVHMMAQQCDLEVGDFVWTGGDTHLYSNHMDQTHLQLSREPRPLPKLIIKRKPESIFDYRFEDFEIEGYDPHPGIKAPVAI

[25] = biological target: Thymidylate synthase (Escherichia coli K-12) (UniProt P0A884); experiment: Binding affinity to Escherichia coli […] hexahistidine-tagged TS at 20 uM by biolayer interferometry assay
Thymidylate synthase (Escherichia coli K-12), sequence (P0A884 whole entry, looked up): as the sequence (P0A884 whole entry) above

Klebsiella pneumoniae [26] = experiment: Antibacterial activity against ESBL-producing Klebsiella pneumoniae ATCC 700603 assessed as reduction in microbial growth after 16 to 18 hrs by microbroth dilution method; format: functional; conditions: time 16-18 hrs
Escherichia coli [27] = experiment: Antibacterial activity against Escherichia coli ATCC 25922 assessed as blockage of folate pathway after 16 to 18 hrs in presence of thymine by microbroth dilution method; format: functional; conditions: time 16-18 hrs
Escherichia coli [28] = experiment: Antibacterial activity against Escherichia coli ATCC 25922 assessed as blockage of folate pathway after 16 to 18 hrs in presence of thymine by measuring fold increase in MIC by microbroth dilution method; format: functional; conditions: time 16-18 hrs
[29] = biological target: Thymidylate synthase (Escherichia coli K-12) (UniProt P0A884); experiment: Inhibition of Escherichia coli N-terminal hexahstidine-tagged TS at 500 uM by steady-state kinetic analysis
Escherichia coli [30] = experiment: Bactericidal activity against Escherichia coli ATCC 25922 at 0.5 to 8 times MIC by counting bacterial colonies upto 24 hrs time-kill assay; format: functional, organism-based; conditions: DDE = dose-dependent effect
Escherichia coli [31] = experiment: Bactericidal activity against Escherichia coli ATCC 25922 assessed as reductions in colony forming unit at 8 times MIC measured for 24 hrs by time-kill assay; format: functional
Escherichia coli [32] = experiment: Bactericidal activity against Escherichia coli ATCC 25922 assessed as suppression of regrowth of colonies at 4 to 8 times MIC measured for 24 hrs by time-kill assay; format: functional, organism-based
Escherichia coli [33] = experiment: Bactericidal activity against Escherichia coli ATCC 25922 at 30 pg/ml measured for 24 hrs in presence of SMZ by time-kill assay; format: functional, organism-based
Klebsiella pneumoniae [34] = experiment: Bactericidal activity against Klebsiella pneumoniae CCPM(A)-081514 at 0.5 ug/ml measured for 24 hrs in presence of SMZ by time-kill assay; format: functional, organism-based; conditions: dose 0.5 µg/ml
Escherichia coli [35] = experiment: Synergistic antibacterial activity against Escherichia coli ATCC 25922 assessed as fractional inhibitory concentration index at 30 pg/ml measured for 24 hrs in presence of SMZ by microdilution checkerboard assay; format: functional
Klebsiella pneumoniae [36] = experiment: Synergistic antibacterial activity against Klebsiella pneumoniae CCPM(A)-081514 assessed as fractional inhibitory concentration index at 0.5 ug/ml measured for 24 hrs in presence of SMZ by microdilution checkerboard assay; format: functional; conditions: dose 0.5 µg/ml
Escherichia coli [37] = experiment: In vivo Antibacterial activity against Escherichia coli ATCC 25922 in septicemia ICR mouse model assessed as increase in mouse survival time administered iv measured after 14 hrs; format: functional, organism-based; conditions: dose 7.5-15 mg/kg, DDE = dose-dependent effect
Escherichia coli [38] = experiment: In vivo Antibacterial activity against Escherichia coli ATCC 25922 in septicemia ICR mouse model assessed as increase in mouse survival time at 15 mg/kg,iv measured after 14 hrs; format: functional
Escherichia coli [39] = experiment: In vivo Antibacterial activity against Escherichia coli ATCC 25922 in septicemia ICR mouse model assessed as reduction in bacterial load at 50 mg/kg, iv measured after 2 to 4 hrs; format: functional; conditions: time 2-4 hrs
Escherichia coli [40] = experiment: Potency index ratio of IC50 for TMP to IC50 for test compound for inhibition of Escherichia coli C-terminal hexahistidine tagged DHFR
Escherichia coli [41] = experiment: Bactericidal activity against Escherichia coli ATCC 25922 at 0.5 to 8 times MIC by counting bacterial colonies time-kill assay; format: functional, organism-based; conditions: time <= 24.0 hrs, TDE = time-dependent effect
Escherichia coli [42] = experiment: In vivo Antibacterial activity against Escherichia coli ATCC 25922 in septicemia ICR mouse model assessed as increase in mouse survival rate administered iv measured […]; format: functional, organism-based; conditions: dose 7.5-15 mg/kg, DDE = dose-dependent effect
[43] = biological target: Thymidylate synthase (Escherichia coli K-12) (UniProt P0A884); experiment: Binding affinity to Escherichia coli N-terminal hexahistidine tagged TS assessed as change in gibbs free energy at 0.2 mM by isothermal titration calorimetry method
[44] = biological target: Thymidylate synthase (Escherichia coli K-12) (UniProt P0A884); experiment: Binding affinity to Escherichia coli N-terminal hexahistidine tagged TS assessed as change in entropy at 0.2 mM by isothermal titration calorimetry method

## Nc1nc(N)c2c(ccc3c2ccn3Cc2cccc(F)c2)n1
Escherichia coli [1]
  inhibition: 61%
Escherichia coli [2]
  MIC: 0.002 µg/mL
Klebsiella pneumoniae [3]
  MIC: 0.25 µg/mL
Acinetobacter baumannii [4]
  MIC: 0.125 µg/mL
[5]
  IC50: 98.4 nM
Escherichia coli [6]
  deltaH: -23.3 kcal/mol
Escherichia coli [7]
  deltaS: -45.8 cal/mol/deg
[8]
  Kd: 75.2 nM
Escherichia coli [9]
  deltaG: -9.71 kcal/mol
Acinetobacter baumannii [10]
  MIC: 0.0125 µg/mL
Acinetobacter baumannii [11]
  MIC: 4 µg/mL
Acinetobacter baumannii [12]
  MIC: 4 µg/mL
Acinetobacter baumannii [13]
  MIC: 0.25 µg/mL
Acinetobacter baumannii [14]
  MIC: 0.125 µg/mL
Klebsiella pneumoniae [15]
  MIC: 0.5 µg/mL
Klebsiella pneumoniae [16]
  MIC: 0.002 µg/mL
Klebsiella pneumoniae [17]
  MIC: 16 µg/mL
Escherichia coli [18]
  MIC: 16 µg/mL
Escherichia coli [19]
  MIC: 0.002 µg/mL
Escherichia coli [20]
  MIC: 0.002 µg/mL
Escherichia coli [21]
  MIC: 0.002 µg/mL
Staphylococcus aureus [22]
  MIC: 0.125 µg/mL
Staphylococcus aureus [23]
  MIC: 0.06 µg/mL
Enterococcus faecium
  MIC: 0.125 µg/mL
Escherichia coli [24]
  MIC: 8 µg/mL
Thymidylate synthase
  IC50: 18600 nM
[25]
  Activity: Active
Klebsiella pneumoniae [26]
  MIC: ≤ 0.25 µg/mL
Escherichia coli [27]
  MIC: 8 µg/mL
Escherichia coli [28]
  fold change (FC): 4000
[29]
  inhibition: 50%

## Nc1nc(N)c2c(ccc3c2ccn3Cc2ccccc2F)n1
Escherichia coli [1]
  inhibition: 76.2%
Escherichia coli [2]
  MIC: 0.002 µg/mL
Klebsiella pneumoniae [3]
  MIC: 1 µg/mL
Acinetobacter baumannii [4]
  MIC: 1 µg/mL
[5]
  IC50: 2.36 nM
Escherichia coli [6]
  deltaH: -20.4 kcal/mol
Escherichia coli [7]
  TdeltaS: -19.4 kcal/mol
[8]
  Kd: 1.57 nM
Escherichia coli [9]
  deltaG: -9.14 kcal/mol
Acinetobacter baumannii [10]
  MIC: 0.03 µg/mL
Acinetobacter baumannii [11]
  MIC: 8 µg/mL
Acinetobacter baumannii [12]
  MIC: 8 µg/mL
Acinetobacter baumannii [13]
  MIC: 0.06 µg/mL
Acinetobacter baumannii [14]
  MIC: 0.125 µg/mL
Klebsiella pneumoniae [15]
  MIC: 2 µg/mL
Klebsiella pneumoniae [16]
  MIC: 0.03 µg/mL
Klebsiella pneumoniae [17]
  MIC: 16 µg/mL
Escherichia coli [18]
  MIC: 16 µg/mL
Escherichia coli [19]
  MIC: 0.06 µg/mL
Escherichia coli [20]
  MIC: 0.002 µg/mL
Escherichia coli [21]
  MIC: 0.002 µg/mL
Staphylococcus aureus [22]
  MIC: 0.03 µg/mL
Staphylococcus aureus [23]
  MIC: 0.5 µg/mL
Enterococcus faecium
  MIC: 0.03 µg/mL
Escherichia coli [24]
  MIC: 8 µg/mL
Escherichia coli [30]
  Activity: Dde
Escherichia coli [31]
  Activity: 3 log10CFU/ml
Escherichia coli [32]
  Activity: Active
Escherichia coli [33]
  Activity: Active
Klebsiella pneumoniae [34]
  Activity: Active
Escherichia coli [35]
  fractional inhibitory concentration index (FICI): 0.02
Klebsiella pneumoniae [36]
  fractional inhibitory concentration index (FICI): 0.07
Escherichia coli [37]
  Activity: Dde
Escherichia coli [38]
  Activity: 50%
Escherichia coli [39]
  Activity: 100 CFU/ml
Thymidylate synthase
  IC50: 11200 nM
[25]
  Activity: Active
Klebsiella pneumoniae [26]
  MIC: 1 µg/mL
Escherichia coli [27]
  MIC: 8 µg/mL
Escherichia coli [40]
  Ratio IC50: 20
Escherichia coli [28]
  fold change (FC): 4000
Escherichia coli [41]
  Activity: Tde
Escherichia coli [42]
  Activity: Dde
[43]
  deltaG: -5.82 kcal/mol
[44]
  TdeltaS: -20.9 kcal/mol
[29]
  inhibition: 50%

## Cc1cc(NS(=O)(=O)c2ccc(N)cc2)no1 [SULFAMETHOXAZOLE]
Escherichia coli [2]
  MIC: 256 µg/mL
Klebsiella pneumoniae [15]
  MIC: 2050 µg/mL
